Measured values taken from patent US20020013300A1, “Methods for improving size and appearance of a wound” (Avocet Polymer Technologies, Inc., priority 2000, published 2002).

Key:
Type in all cases: in vivo, human patient
[1] = test system: hypertrophic scar; test: Example 2, Patient three: treatment of a tender hypertrophic facial scar; settings: 7 weeks
Excerpt: The patient's chief complaint was irritation with daily grooming and itching from scars located on the face. The patient underwent a medical history and physical examination. […] Clinical progress was followed using photographic and ultrasound imaging as well as a patient self-report. […] Color changes were documented by photographs. Ultrasound images documented the scar size change.

[2] = test system: hypertrophic scar; test: Example 3, Patient 25: treatment of an irritated hypertrophic forearm scar
Procedure: The patient's chief complaint was an irritated scar of the forearm for more than two years. The patient underwent a medical history and physical examination. On examination, a raised irregularly contoured errythematous hypertrophic scar was observed. Materials and Methods: After review of clinical options, the patient was prescribed nabumetone for 4 weeks. […] The combination of nabumetone and hydrogel was used for 15-18 hours each day for a period of 8 weeks. Clinical progress was followed using photographic imaging as well as patient self-report.

[3] = test system: post-operative scar; test: Example 4, Patient two: treatment of a raised post-operative leg scar
Procedure: The patient's chief complaint was difficulty sleeping or resting because of a post-operative orthopoedic right leg scar that was irritated and raised. The patient underwent a medical history and physical examination. Notable medication use was a 325 mg tablet of acetylsalicylic acid orally administered to prevent thrombo-embolic post-operative complications. On examination, a 15 cm raised erythematous post-operative scar of 15 cm length and approximately 3 mm width was noted, with exquisite sensitivity to examination and evidence of excoriation. At the time of exam, the patient denied itching. […] To avoid the use of adhesives, an ace wrap bandage was used to hold the gel—salicylic acid combination in place. Gel plus salicylic acid co-administration was monitored by a daily patient diary. Photographs and patient self report were used to assess treatment results. Itching complaints were followed using a 10 point itching scale. Pre-treatment itching scale was entered as 0, reflecting onset of aspirin use prior therapy. RESULTS: Compliance with treatment regimen was documented daily. […] Itching symptoms were reported at 0.

[4] = test system: post-operative caesarean section scar; test: Example 5, Patient one: treatment of an itchy caesarean section scar
Excerpt: The patient's chief complaint was a burning itchy sensation in a closed post-operative caesarean section scar. The patient underwent a medical history and physical examination. On examination, an 18 cm irritated lower abdominal vertical healed incision was noted, with evidence of excoriation. […] To avoid the use of adhesives, a control top stretch panty was used to hold the gel—salicylic acid combination in place. Gel plus salicylic acid co-administration was monitored by a daily patient diary. Photographs and patient self report were followed to assess treatment results. Itching complaints were followed using a 10 point itching scale. Pre-treatment itching scale was entered as 6, with the comment that itching bothered the patient “severely, badly.” RESULTS: Compliance with treatment regimen was documented daily. […] On examination, the scar contours appeared to have become more regular and scar color faded.

[5] = nabumetone, then nabumetone + hydrogel 8 weeks
[6] = 2% salicylic acid under hydrogel, 12 weeks
[7] = 2% salicylic acid under hydrogel

Which patient self-report ([1]; nabumetone + hydrogel) does the source give for `COc1ccc2cc(CCC(C)=O)ccc2c1` [nabumetone, 4-(6-methoxy-2-naphthalenyl)-2-butanone] here?
Its patient self-report is “improved comfort”.

And the “redness and tenderness on exam” value ([1]; nabumetone + hydrogel)?
Its value is “less redness and tenderness”.

What about the “scar color (photographs)” value ([1]; nabumetone + hydrogel) of the same compound?
The value was “revert to a color tone more closely matching adjacent skin”.

And the “reduction in scar size (examination, ultrasound)” value ([1]; oral nabumetone 250-500 mg daily co-administered with AVOGEL hydrogel sheeting 15-18 h/day)?
Its value is 50%.

What about the irregular contours [2, 5] of the same compound?
The irregular contours was “faded”.

What about the patient self-report [2, 5] of the same compound?
Its patient self-report is “improved comfort”.

And the “scar color on examination” value [2, 5]?
Its value is “reverted in color to skin tones closely matching adjacent skin”.

What about the “scar height on examination” value ([2]; oral nabumetone 250 mg daily 4 weeks, then with AVOGEL hydrogel sheeting 15-18 h/day for 8 weeks) of the same compound?
The value was “became flatter”.

And the “scar visibility on photographic documentation” value ([2]; treatment day 60)?
The value was “not observable”.

Which “shortened measure of the scar, scar contracture (photographs)” value ([3]; 2% salicylic acid topically under AVOGEL hydrogel 15-18 h/day, 12 weeks, patient also on oral acetylsalicylic acid 325 mg) does the source give for `O=C(O)c1ccccc1O` [salicylic acid] here?
Its value is 25%.

And the “evidence of itching or irritation on examination” value [3, 6]?
Its value is “No evidence of itching or irritation”.

And the patient report [3, 6]?
Its patient report is “improved sleep with reduction in scar irritation”.

What about the “scar color on examination” value [3, 6] of the same compound?
The value was “lighter than in pre-treatment”.

What about the “scar contours on examination” value [3, 6] of the same compound?
Its value is “flattened”.

What about the “itching symptoms (itching scale)” value ([3]; 10 point scale, pre-treatment entered as 0 (aspirin use prior to therapy)) of the same compound?
Its value is 0.

And the “redness and local irritation at scar site (photographs)” value ([4]; 2% salicylic acid topically under AVOGEL hydrogel 15-18 h/day, 12 weeks)?
The value was “reduced redness and local irritation”.

What about the “evidence of itching or irritation on examination” value [4, 7] of the same compound?
The value was “No evidence of itching or irritation”.

And the “scar color on examination” value [4, 7]?
The value was “faded”.

And the “scar contours on examination” value [4, 7]?
Its value is “more regular”.

What about the “itching symptoms (itching scale)” value ([4]; 10 point scale, 4th week of treatment, pre-treatment 6) of the same compound?
The value was 3.

What about the “scar irritation and pruritis” value ([4]; end of treatment after 20 weeks) of the same compound?
The value was “reduced to infrequent”.
